Reference: ChEMBL document CHEMBL1146715, “The discovery and synthesis of novel adenosine substituted 2,3-dihydro-1H-isoindol-1-ones: potent inhibitors of poly(ADP-ribose) polymerase-1 (PARP-1)” (Bioorg Med Chem Lett, 2004)

target: Poly [ADP-ribose] polymerase 1 (Mus musculus) (UniProt P11103); assay: Percent inhibition of poly(ADP-ribose) polymerase-1 (PARP-1) in mouse using Cell protection assay at 10 uM
Sequence (P11103 whole entry): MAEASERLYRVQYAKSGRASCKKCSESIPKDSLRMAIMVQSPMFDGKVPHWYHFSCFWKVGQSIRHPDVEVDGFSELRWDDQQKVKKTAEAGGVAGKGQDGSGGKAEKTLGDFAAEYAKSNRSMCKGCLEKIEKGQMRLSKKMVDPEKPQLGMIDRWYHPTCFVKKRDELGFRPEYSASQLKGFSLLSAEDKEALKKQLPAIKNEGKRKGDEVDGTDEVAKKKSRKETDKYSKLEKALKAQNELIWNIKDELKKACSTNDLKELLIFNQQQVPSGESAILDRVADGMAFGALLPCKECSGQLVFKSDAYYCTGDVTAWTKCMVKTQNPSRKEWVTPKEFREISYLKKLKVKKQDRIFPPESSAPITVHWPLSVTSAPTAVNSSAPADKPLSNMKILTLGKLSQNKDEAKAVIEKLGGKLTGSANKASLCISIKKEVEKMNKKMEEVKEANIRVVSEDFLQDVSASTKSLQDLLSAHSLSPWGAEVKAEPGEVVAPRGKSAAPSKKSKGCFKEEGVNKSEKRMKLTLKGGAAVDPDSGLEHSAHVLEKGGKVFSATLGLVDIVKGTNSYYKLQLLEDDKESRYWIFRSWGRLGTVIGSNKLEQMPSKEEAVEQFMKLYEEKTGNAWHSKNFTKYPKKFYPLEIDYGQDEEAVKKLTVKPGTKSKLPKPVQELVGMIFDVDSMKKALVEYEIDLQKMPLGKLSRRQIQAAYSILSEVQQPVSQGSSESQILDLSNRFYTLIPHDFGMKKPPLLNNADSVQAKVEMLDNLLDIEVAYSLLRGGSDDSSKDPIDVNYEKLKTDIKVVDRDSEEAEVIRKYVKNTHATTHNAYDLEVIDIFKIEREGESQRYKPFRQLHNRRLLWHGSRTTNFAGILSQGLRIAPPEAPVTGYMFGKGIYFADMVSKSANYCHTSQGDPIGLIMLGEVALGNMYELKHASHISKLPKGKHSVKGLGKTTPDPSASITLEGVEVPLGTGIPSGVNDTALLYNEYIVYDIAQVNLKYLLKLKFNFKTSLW

inhibition	Compound
51%	Nc1ncnc2c1ncn2C1O[C@H](CNC(=O)/C=C/c2ccc(C(=O)Nc3cccc4c3CNC4=O)cc2)[C@@H](O)[C@H]1O (some centres undefined)
33%	O=C1N=Cc2ccccc21
52%	NC(=O)c1cccc(NC(=O)CCC(=O)NCC2OC(n3cnc4c(N)ncnc43)[C@H](O)[C@@H]2O)c1 (some centres undefined)
30%	O=C(CCCCCCC(=O)Nc1cccc2c1CNC2=O)NC[C@H]1OC(n2cnc3c(O)ncnc32)[C@H](O)[C@@H]1O (some centres undefined)
